Assay results published in patent US8859569B2, “Substituted annellated pyrimidines and use thereof” (Bayer Pharma Aktiengesellschaft, priority 2011, dated 2014).

Key:
[1] = target: T1, human phosphodiesterase 5 (PDE-5) (Homo sapiens, UniProt O76074); assay: Inhibition of human phosphodiesterase 5 (PDE-5), SPA assay; type: biochemical; conditions: PDE-5 preparation from human platelets, [8-3H]cGMP substrate
T1 construct: PDE-5 preparations are obtained from human platelets by lysis; from tissue; host or cells: human platelets
Method in brief: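 Scintillation proximity read-out with yttrium beads after 60 min room-temperature hydrolysis of 0.025 μCi [8-3H]cGMP, pH 7.5 Tris/MgCl2/EDTA buffer. Enzyme is a human platelet PDE-5 fraction, diluted to keep substrate turnover below 70%. Test concentrations 4 μM–0.0018 μM final; IC50 from inhibition curves.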

[2] = target: T2, recombinant guanylate cyclase reporter cell line (Rattus norvegicus, UniProt P19686+P20595); assay: Action on recombinant guanylate cyclase reporter cell line; type: cell-based
T2 construct: expressed in transfected cells
T2 sequence (P20595 1-619): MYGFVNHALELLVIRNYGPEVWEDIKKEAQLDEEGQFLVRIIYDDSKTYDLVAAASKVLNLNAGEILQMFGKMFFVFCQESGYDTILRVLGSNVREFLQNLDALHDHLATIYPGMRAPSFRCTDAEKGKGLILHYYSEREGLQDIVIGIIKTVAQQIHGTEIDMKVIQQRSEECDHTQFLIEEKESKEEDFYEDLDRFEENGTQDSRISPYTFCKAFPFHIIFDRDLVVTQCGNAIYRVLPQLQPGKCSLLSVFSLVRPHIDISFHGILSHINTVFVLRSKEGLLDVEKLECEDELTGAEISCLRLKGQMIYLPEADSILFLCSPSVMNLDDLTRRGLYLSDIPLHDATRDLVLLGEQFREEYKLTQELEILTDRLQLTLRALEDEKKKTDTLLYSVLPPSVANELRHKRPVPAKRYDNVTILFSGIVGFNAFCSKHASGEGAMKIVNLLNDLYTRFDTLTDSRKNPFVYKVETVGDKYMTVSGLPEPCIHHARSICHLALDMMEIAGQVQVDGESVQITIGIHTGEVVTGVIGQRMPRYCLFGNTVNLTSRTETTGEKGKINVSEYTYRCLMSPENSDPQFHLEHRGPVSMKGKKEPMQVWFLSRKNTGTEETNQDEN
T2 sequence (P19686 1-690): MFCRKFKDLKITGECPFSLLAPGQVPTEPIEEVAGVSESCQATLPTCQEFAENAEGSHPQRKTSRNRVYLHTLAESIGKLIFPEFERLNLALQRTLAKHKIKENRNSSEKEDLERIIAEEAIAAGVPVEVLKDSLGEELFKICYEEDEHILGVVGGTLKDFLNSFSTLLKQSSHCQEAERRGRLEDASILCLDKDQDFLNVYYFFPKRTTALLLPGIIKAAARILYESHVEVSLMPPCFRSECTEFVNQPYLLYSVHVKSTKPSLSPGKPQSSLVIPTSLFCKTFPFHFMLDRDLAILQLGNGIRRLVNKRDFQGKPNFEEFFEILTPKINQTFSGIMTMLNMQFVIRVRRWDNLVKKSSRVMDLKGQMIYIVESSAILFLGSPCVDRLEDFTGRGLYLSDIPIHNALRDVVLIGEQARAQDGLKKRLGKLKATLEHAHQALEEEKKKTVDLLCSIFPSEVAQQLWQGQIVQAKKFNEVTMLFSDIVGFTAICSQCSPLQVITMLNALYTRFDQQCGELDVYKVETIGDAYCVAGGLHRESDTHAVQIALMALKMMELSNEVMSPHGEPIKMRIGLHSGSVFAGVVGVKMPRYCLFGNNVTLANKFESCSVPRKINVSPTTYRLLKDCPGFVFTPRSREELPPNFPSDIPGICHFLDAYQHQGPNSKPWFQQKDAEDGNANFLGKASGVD
Description: B-2. Action on Recombinant Guanylate Cyclase Reporter Cell Line
The cellular action of the compounds according to the invention is determined on a recombinant guanylate cyclase reporter cell line, as described in F. Wunder et al., Anal. Biochem. 339, 104-112 (2005).

aorta rings = assay: Vessel-relaxing action in vitro (aorta rings, phenylephrine contraction); conditions: concentration required to reduce phenylephrine-induced contraction of rabbit aorta rings by 50%
Description: B-1. Vessel-relaxing Action in vitro
Rabbits are stunned with a blow on the back of the neck and exsanguinated. The aorta is removed, freed from adhering tissue, separated into rings with a width of 1.5 mm, and placed individually, with preloading, in 5-ml organ baths with carbogen-gassed Krebs-Henseleit solution at 37° C. with the following composition (mM in each case): sodium chloride: 119; potassium chloride: 4.8; calcium chloride dihydrate: 1; magnesium sulphate heptahydrate: 1.4; potassium dihydrogen phosphate: 1.2; sodium hydrogen carbonate: 25; glucose: 10. The contraction force is recorded with Statham UC2 cells, amplified and digitized via an A/D converter (DAS-1802 HC, Keithley Instruments Munich) and recorded in parallel on a continuous-line recorder. To produce contraction, phenylephrine is added to the bath cumulatively in increasing concentration. After several control cycles, the test substance is added in increasing dosage in each subsequent pass and the level of contraction is compared with the level of contraction reached in the immediately preceding pass. This is used for calculating the concentration that is required to reduce the level of the control value by 50% (IC50 value). The standard application volume is 5 μl, and the proportion of DMSO in the bath solution corresponds to 0.1%.

| IC50 [1] | MEC (minimal effective concentration) [2] | IC50 (aorta rings; Oryctolagus cuniculus) | IC50 (aorta rings) | Compound |
| --- | --- | --- | --- | --- |
| 12 nM | 1 μm | 1450 nM |  | CC1(C)C(=O)Nc2nc(-c3nn(Cc4ccccc4F)c4ncccc34)nc(N3CCC(N)C3)c21 (racemic) [Example 106, 4-(3-Aminopyrrolidin-1-yl)-2-[1-(2-fluorobenzyl)-1H-pyrazolo[3,4-b]pyridin-3-yl]-5,5-dimethyl-5,7-dihydro-6H-pyrrolo[2,3-d]pyrimidin-6-one] |
| 150 nM | 0.1 μm |  | 1470 nM | CC1(C)C(=O)Nc2nc(-c3nn(Cc4ccccc4F)c4ncc(F)cc34)nc(NCC(O)C(F)(F)F)c21 (single isomer, unassigned) [Example 96-1, 2-[5-Fluoro-1-(2-fluorobenzyl)-1H-pyrazolo[3,4-b]pyridin-3-yl]-5,5-dimethyl-4-[(3,3,3-trifluoro-2-hydroxypropyl)amino]-5,7-dihydro-6H-pyrrolo[2,3-d]pyrimidin-6-one] |
| 26 nM | 0.01 μm |  | 601 nM | CC1(C)C(=O)Nc2nc(-c3nn(Cc4ccccc4F)c4ncc(F)cc34)nc(NCC(O)C(F)(F)F)c21 (single isomer, unassigned) [Example 96-2, 2-[5-Fluoro-1-(2-fluorobenzyl)-1H-pyrazolo[3,4-b]pyridin-3-yl]-5,5-dimethyl-4-[(3,3,3-trifluoro-2-hydroxypropyl)amino]-5,7-dihydro-6H-pyrrolo[2,3-d]pyrimidin-6-one] |
| 140 nM | 0.1 μm | 114 nM |  | COc1nc(-c2nn(Cc3ccccc3F)c3ncccc23)nc2c1C(C)(C)C(=O)N2 [Example 1, 2-[1-(2-Fluorobenzyl)-1H-pyrazolo[3,4-b]pyridin-3-yl]-4-methoxy-5,5-dimethyl-5,7-dihydro-6H-pyrrolo[2,3-d]pyrimidin-6-one] |
| 8 nM | 0.3 μm | 54 nM |  | CC1(C)C(=O)Nc2nc(-c3nn(Cc4ccccc4F)c4ncc(F)cc34)nc(NCCO)c21 [Example 2, 2-[5-Fluoro-1-(2-fluorobenzyl)-1H-pyrazolo[3,4-b]pyridin-3-yl]-4-[(2-hydroxyethyl)amino]-5,5-dimethyl-5,7-dihydro-6H-pyrrolo[2,3-d]pyrimidin-6-one] |
| 46 nM | 3.0 μm | 469 nM |  | CC(C)(N)CNc1nc(-c2nn(Cc3ccccc3F)c3ncc(F)cc23)nc2c1C(C)(C)C(=O)N2 [Example 3, 4-[(2-Amino-2-methylpropyl)amino]-2-[5-fluoro-1-(2-fluorobenzyl)-1H-pyrazolo[3,4-b]pyridin-3-yl]-5,5-dimethyl-5,7-dihydro-6H-pyrrolo[2,3-d]pyrimidin-6-one] |
| 6 nM | 0.1 μm | 62 nM |  | CC(C)(O)CNc1nc(-c2nn(Cc3ccccc3F)c3ncc(F)cc23)nc2c1C(C)(C)C(=O)N2 [Example 4, 2-[5-Fluoro-1-(2-fluorobenzyl)-1H-pyrazolo[3,4-b]pyridin-3-yl]-4-[(2-hydroxy-2-methylpropyl)amino]-5,5-dimethyl-5,7-dihydro-6H-pyrrolo[2,3-d]pyrimidin-6-one] |
| 130 nM | 0.03 μm | 285 nM |  | CC1(C)C(=O)Nc2nc(-c3nn(Cc4ccccc4F)c4ncc(F)cc34)nc(NCCC(F)(F)F)c21 [Example 5, 2-[5-Fluoro-1-(2-fluorobenzyl)-1H-pyrazolo[3,4-b]pyridin-3-yl]-5,5-dimethyl-4-[(3,3,3-trifluoropropyl)amino]-5,7-dihydro-6H-pyrrolo[2,3-d]pyrimidin-6-one] |
| 120 nM |  | 680 nM |  | CC1(C)C(=O)Nc2nc(-c3nn(Cc4ccccc4F)c4ncc(F)cc34)nc(NCC(N)C(F)(F)F)c21 (centres unmarked) [Example 6, 4-[(2-Amino-3,3,3-trifluoropropyl)amino]-2-[5-fluoro-1-(2-fluorobenzyl)-1H-pyrazolo[3,4-b]pyridin-3-yl]-5,5-dimethyl-5,7-dihydro-6H-pyrrolo[2,3-d]pyrimidin-6-one] |
| 110 nM | 0.1 μm | 200 nM |  | CC1(C)C(=O)Nc2nc(-c3nn(Cc4ccccc4F)c4ncc(F)cc34)nc(NCC(F)F)c21 [Example 7, 4-[(2,2-Difluoroethyl)amino]-2-[5-fluoro-1-(2-fluorobenzyl)-1H-pyrazolo[3,4-b]pyridin-3-yl]-5,5-dimethyl-5,7-dihydro-6H-pyrrolo[2,3-d]pyrimidin-6-one] |
| 400 nM | 0.3 μm | 309 nM |  | CC1(C)C(=O)Nc2nc(-c3nn(Cc4ccccc4F)c4ncc(F)cc34)nc(N3CC(F)C3)c21 [Example 8, 4-(3-Fluoroazetidin-1-yl)-2-[5-fluoro-1-(2-fluorobenzyl)-1H-pyrazolo[3,4-b]pyridin-3-yl]-5,5-dimethyl-5,7-dihydro-6H-pyrrolo[2,3-d]pyrimidin-6-one] |
| 230 nM | 0.1 μm | 21000 nM |  | CC1(C)C(=O)Nc2nc(-c3nn(Cc4ccccc4F)c4ncc(F)cc34)nc(NC(C3CC3)C3CC3)c21 [Example 9, 4-[(Dicyclopropylmethyl)amino]-2-[5-fluoro-1-(2-fluorobenzyl)-1H-pyrazolo[3,4-b]pyridin-3-yl]-5,5-dimethyl-5,7-dihydro-6H-pyrrolo[2,3-d]pyrimidin-6-one] |
| 210 nM | 0.03 μm |  |  | CC1(C)C(=O)Nc2nc(-c3nn(Cc4ccccc4F)c4ncccc34)nc(Nc3ccccc3)c21 [Example 87, 2-[1-(2-fluorobenzyl)-1H-pyrazolo[3,4-b]pyridin-3-yl]-5,5-dimethyl-4-(phenylamino)-5,7-dihydro-6H-pyrrolo[2,3-d]pyrimidin-6-one] |
| 840 nM |  | 10000 nM |  | CC1(C)C(=O)Nc2nc(-c3nn(Cc4cccc(F)c4F)c4ncc(F)cc34)nc(OCCC(F)(F)F)c21 [Example 110, 2-[1-(2,3-Difluorobenzyl)-5-fluoro-1H-pyrazolo[3,4-b]pyridin-3-yl]-5,5-dimethyl-4-(3,3,3-trifluoropropoxy)-5,7-dihydro-6H-pyrrolo[2,3-d]pyrimidin-6-one] |
| 83 nM | 0.03 μm |  |  | CC1(C)C(=O)Nc2nc(-c3nn(Cc4cccc(F)c4F)c4ncc(F)cc34)nc(O)c21 [Example 116, 2-[1-(2,3-Difluorobenzyl)-5-fluoro-1H-pyrazolo[3,4-b]pyridin-3-yl]-4-hydroxy-5,5-dimethyl-5,7-dihydro-6H-pyrrolo[2,3-d]pyrimidin-6-one] |
